Experimental data: ChEMBL document CHEMBL1268934, “Design, synthesis, and subtype selectivity of 3,6-disubstituted β-carbolines at Bz/GABA(A)ergic receptors. SAR and studies directed toward agents for treatment of alcohol abuse” (Bioorg Med Chem, 2010); call rule not given here
pKi: −log10 of the molar value.

Columns and labels:
[1] = molecular target: T1, GABA-A receptor; alpha-1/beta-3/gamma-2 (Homo sapiens, UniProt P14867+P18507+P28472); test: Displacement of [3H]flunitrazepam from human recombinant GABAA alpha-1-beta-3-gamma-2 receptor expressed in HEK cells by liquid scintillation counting; assay type: cell-based, HEK293
T1 sequence (P14867 whole entry): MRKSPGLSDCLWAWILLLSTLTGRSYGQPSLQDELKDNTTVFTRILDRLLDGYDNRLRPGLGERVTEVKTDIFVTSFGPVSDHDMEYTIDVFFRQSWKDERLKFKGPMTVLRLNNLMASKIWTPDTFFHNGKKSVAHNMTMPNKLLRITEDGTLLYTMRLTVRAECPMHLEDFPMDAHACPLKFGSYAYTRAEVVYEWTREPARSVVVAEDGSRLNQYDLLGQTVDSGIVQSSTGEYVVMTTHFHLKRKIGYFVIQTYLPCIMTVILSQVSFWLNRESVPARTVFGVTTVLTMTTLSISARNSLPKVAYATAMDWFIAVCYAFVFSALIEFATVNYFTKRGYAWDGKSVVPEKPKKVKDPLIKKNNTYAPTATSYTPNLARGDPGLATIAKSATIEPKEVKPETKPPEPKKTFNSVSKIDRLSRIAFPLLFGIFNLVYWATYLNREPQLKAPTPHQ
T1 sequence (P18507 whole entry): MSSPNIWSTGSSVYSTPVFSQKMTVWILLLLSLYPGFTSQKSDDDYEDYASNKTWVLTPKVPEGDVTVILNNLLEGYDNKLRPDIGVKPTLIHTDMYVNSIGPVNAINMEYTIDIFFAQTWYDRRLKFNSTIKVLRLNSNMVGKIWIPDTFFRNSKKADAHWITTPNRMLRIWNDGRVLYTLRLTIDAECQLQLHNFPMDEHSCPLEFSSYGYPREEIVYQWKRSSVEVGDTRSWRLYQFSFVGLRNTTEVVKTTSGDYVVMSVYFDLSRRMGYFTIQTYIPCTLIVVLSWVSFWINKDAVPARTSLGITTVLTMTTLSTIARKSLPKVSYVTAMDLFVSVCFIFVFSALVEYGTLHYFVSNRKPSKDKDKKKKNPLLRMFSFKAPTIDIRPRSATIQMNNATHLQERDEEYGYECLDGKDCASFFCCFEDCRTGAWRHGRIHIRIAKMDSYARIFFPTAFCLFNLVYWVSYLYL
T1 sequence (P28472 whole entry): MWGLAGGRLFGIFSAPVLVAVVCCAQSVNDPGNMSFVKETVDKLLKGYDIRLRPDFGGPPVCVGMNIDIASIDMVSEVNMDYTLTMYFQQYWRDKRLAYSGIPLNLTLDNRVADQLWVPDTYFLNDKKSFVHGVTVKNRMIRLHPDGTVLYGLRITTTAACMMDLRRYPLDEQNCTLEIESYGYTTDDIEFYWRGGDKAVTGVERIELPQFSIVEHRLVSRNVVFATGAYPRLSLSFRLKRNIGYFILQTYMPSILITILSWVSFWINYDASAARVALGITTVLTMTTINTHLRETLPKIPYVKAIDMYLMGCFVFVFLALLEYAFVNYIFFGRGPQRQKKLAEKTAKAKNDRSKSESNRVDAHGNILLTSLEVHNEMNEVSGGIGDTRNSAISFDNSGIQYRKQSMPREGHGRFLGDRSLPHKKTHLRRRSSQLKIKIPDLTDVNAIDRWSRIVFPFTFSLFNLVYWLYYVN

[2] = molecular target: T2, GABA-A receptor; alpha-2/beta-3/gamma-2 (Homo sapiens, UniProt P18507+P28472+P47869); test: Displacement of [3H]flunitrazepam from human recombinant GABAA alpha-2-beta-3-gamma-2 receptor expressed in HEK cells by liquid scintillation counting; assay type: cell-based, HEK293
T2 sequence (P18507 whole entry): T1 sequence (P18507 whole entry)
T2 sequence (P28472 whole entry): T1 sequence (P28472 whole entry)
T2 sequence (P47869 whole entry): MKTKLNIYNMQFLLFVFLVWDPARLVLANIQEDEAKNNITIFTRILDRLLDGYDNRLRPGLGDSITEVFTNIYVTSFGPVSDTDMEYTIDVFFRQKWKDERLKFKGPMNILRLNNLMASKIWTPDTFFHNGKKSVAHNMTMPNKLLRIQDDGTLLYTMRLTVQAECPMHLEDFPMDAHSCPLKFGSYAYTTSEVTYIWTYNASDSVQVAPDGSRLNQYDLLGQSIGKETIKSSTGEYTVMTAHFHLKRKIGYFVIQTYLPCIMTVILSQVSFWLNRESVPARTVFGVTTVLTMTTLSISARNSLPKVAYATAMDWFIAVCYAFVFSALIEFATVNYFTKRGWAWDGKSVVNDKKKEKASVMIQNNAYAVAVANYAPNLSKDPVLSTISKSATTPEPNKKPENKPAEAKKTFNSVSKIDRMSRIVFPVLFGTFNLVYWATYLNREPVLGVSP

[3] = molecular target: T3, GABA-A receptor; alpha-5/beta-3/gamma-2 (Homo sapiens, UniProt P18507+P28472+P31644); test: Displacement of [3H]flunitrazepam from human recombinant GABAA alpha-5-beta-3-gamma-2 receptor expressed in HEK cells by liquid scintillation counting; assay type: cell-based, HEK293
T3 sequence (P18507 whole entry): T1 sequence (P18507 whole entry)
T3 sequence (P28472 whole entry): T1 sequence (P28472 whole entry)
T3 sequence (P31644 whole entry): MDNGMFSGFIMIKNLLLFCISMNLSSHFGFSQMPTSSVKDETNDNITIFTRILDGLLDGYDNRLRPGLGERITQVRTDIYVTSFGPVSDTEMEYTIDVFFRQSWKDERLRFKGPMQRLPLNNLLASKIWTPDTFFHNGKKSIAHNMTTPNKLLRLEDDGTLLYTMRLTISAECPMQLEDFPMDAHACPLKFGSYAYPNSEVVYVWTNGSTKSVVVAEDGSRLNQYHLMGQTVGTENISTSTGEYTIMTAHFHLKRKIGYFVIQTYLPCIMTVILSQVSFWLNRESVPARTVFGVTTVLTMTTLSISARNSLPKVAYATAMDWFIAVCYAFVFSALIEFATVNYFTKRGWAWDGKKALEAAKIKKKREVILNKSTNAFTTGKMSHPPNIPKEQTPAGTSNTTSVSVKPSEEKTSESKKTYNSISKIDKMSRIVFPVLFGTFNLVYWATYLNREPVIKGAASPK

[4] = molecular target: GABA-A receptor; alpha-6/beta-3/gamma-2 (Homo sapiens, UniProt P18507+P28472+Q16445); test: Displacement of [3H]flunitrazepam from human recombinant GABAA alpha-6-beta-3-gamma-2 receptor expressed in HEK cells by liquid scintillation counting; assay type: cell-based, HEK293
Sequence of GABA-A receptor; alpha-6/beta-3/gamma-2 (Q16445 whole entry, one chain of several): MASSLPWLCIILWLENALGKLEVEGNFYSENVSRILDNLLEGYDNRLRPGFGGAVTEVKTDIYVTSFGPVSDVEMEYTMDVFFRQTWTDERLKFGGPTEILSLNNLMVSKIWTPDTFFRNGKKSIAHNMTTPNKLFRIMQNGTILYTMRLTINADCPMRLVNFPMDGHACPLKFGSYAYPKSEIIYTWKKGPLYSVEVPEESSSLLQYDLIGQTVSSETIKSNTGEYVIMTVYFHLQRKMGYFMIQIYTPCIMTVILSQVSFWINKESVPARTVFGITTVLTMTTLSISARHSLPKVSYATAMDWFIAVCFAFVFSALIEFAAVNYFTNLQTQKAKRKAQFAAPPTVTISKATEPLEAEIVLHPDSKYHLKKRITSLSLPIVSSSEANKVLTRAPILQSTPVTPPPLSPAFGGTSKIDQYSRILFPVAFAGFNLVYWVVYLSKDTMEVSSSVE

[5] = molecular target: T4, GABA-A receptor; alpha-3/beta-3/gamma-2 (Homo sapiens, UniProt P18507+P28472+P34903); test: Displacement of [3H]flunitrazepam from human recombinant GABAA alpha-3-beta-3-gamma-2 receptor expressed in HEK cells by liquid scintillation counting; assay type: cell-based, HEK293
T4 sequence (P18507 whole entry): T1 sequence (P18507 whole entry)
T4 sequence (P28472 whole entry): T1 sequence (P28472 whole entry)
T4 sequence (P34903 whole entry): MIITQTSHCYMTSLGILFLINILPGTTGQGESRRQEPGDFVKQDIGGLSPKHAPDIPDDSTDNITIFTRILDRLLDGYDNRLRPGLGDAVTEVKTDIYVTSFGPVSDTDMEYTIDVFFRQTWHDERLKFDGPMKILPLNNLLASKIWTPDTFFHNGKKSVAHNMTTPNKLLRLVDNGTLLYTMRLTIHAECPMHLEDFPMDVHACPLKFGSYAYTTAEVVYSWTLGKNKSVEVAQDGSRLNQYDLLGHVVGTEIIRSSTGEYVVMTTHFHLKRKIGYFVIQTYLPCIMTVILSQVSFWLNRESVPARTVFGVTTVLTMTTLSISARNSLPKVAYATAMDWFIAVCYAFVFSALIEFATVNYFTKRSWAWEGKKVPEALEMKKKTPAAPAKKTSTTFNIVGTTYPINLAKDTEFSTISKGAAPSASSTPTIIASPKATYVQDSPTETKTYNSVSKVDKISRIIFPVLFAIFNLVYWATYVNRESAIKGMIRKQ

[6] = molecular target: T5, GABA A receptor alpha-4/beta-3/gamma-2 (Homo sapiens, UniProt P18507+P28472+P48169); test: Displacement of [3H]flunitrazepam from human recombinant GABAA alpha-4-beta-3-gamma-2 receptor expressed in HEK cells by liquid scintillation counting; assay type: cell-based, HEK293; conditions: for Ki: hek293; for pKi: read-out: Ki
T5 sequence (P48169 whole entry, one chain of several): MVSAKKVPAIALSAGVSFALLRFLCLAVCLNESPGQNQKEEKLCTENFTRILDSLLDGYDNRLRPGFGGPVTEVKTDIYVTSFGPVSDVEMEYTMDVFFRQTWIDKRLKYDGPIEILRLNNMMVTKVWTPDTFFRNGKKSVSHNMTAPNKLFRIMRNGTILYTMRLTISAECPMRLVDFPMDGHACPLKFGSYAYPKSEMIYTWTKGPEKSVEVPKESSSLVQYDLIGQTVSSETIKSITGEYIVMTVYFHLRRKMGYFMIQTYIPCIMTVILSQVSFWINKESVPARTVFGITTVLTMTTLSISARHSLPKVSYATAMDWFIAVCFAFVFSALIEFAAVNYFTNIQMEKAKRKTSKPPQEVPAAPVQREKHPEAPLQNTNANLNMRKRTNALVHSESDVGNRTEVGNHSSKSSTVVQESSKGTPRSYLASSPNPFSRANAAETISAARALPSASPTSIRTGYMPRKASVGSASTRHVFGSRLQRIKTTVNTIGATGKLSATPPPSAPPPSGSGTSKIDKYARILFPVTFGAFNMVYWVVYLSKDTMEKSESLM

[7] = molecular target: GABA-A receptor; alpha-3/beta-3/gamma-2 (Homo sapiens) (UniProt P18507+P28472+P34903); test: Agonist activity at human recombinant GABAA alpha-3-beta-3-gamma-2 receptor expressed in Xenopus oocytes at 1 to 10 uM by patch clamp technique; assay type: functional, cell-based; conditions: Oocyte
[8] = molecular target: GABA-A receptor; alpha-1/beta-3/gamma-2 (Homo sapiens) (UniProt P14867+P18507+P28472); test: Agonist activity at human recombinant GABAA alpha-1-beta-3-gamma-2 receptor expressed in Xenopus oocytes at 1 to 10 uM by patch clamp technique; assay type: functional, cell-based; conditions: Oocyte
[9] = molecular target: GABA-A receptor; alpha-5/beta-3/gamma-2 (Homo sapiens) (UniProt P18507+P28472+P31644); test: Agonist activity at human recombinant GABAA alpha-5-beta-3-gamma-2 receptor expressed in Xenopus oocytes at 1 to 10 uM by patch clamp technique; assay type: functional, cell-based; conditions: Oocyte
[10] = molecular target: T5, GABA A receptor alpha-4/beta-3/gamma-2; test: Agonist activity at human recombinant GABAA alpha-4-beta-3-gamma-2 receptor expressed in Xenopus oocytes at 1 to 10 uM by patch clamp technique; assay type: functional, cell-based; conditions: Oocyte
[11] = molecular target: GABA-A receptor; alpha-2/beta-3/gamma-2 (Homo sapiens) (UniProt P18507+P28472+P47869); test: Agonist activity at human recombinant GABAA alpha-2-beta-3-gamma-2 receptor expressed in Xenopus oocytes at 1 to 10 uM by patch clamp technique; assay type: functional, cell-based; conditions: Oocyte

SMILES | pKi [1] | pKi [2] | pKi [3] | pKi [4] | pKi [5] | Ki [6] | Activity [7] [%] | Activity [8] [%] | Activity [9] [%] | pKi [6] | Activity [10] [%] | Activity [11] [%]
CCCC(=O)c1cc2c(cn1)[nH]c1ccc(F)cc12 | 8.43 | 7.57 | 6.60 | < 5.60 | 7.40 | Not Active |  |  |  |  |  | 
CCC(C)OC(=O)c1cc2c(cn1)[nH]c1ccccc12 (stereo not given) | 7.74 | 7.22 | 6.67 | < 5.70 | 6.94 | Not Active |  |  |  |  |  | 
CCOC(=O)c1ncn2c1CN(C)C(=O)c1cc(F)ccc1-2 |  |  |  |  |  |  | 118 | 99 | 96 |  |  | 
CCOC(=O)c1ncc2[nH]c3cccc(OC(C)C)c3c2c1C |  |  |  |  |  |  |  |  | 96 |  |  | 
CC(C)(C)OC(=O)c1cc2c(cn1)[nH]c1ccc(I)cc12 | 7.84 | 7.35 | 7.19 | < 5.40 | 6.91 |  |  |  |  | < 5.40 |  | 
CC(C)(C)OC(=O)c1cc2c3ccccc3nc-2c[nH]1 |  |  |  |  |  |  | 108 | 96 | 88 | 6.00 | 107 | 99
CC(C)(C)OC(=O)c1cc2c(cn1)[nH]c1ccc(C#Cc3ccc4[nH]c5cnc(C(=O)OC(C)(C)C)cc5c4c3)cc12 | 7.52 | 6.91 | < 6.52 | < 5.40 | 7.00 |  |  |  |  | < 6.52 |  | 
O=C(OCC(F)(F)F)c1cc2c(cn1)[nH]c1ccccc12 | 8.52 | 7.61 | 6.90 | < 5.70 | 7.38 |  |  |  |  | < 6.30 |  | 
